Laboratory results: US8426408B2, “Pyrimidine inhibitors of kinases” (AbbVie Inc., priority 2009, dated 2013)

Key:
NCI-H1299 cells = assay: Induction of polyploidy in H1299; assay type: cell-based, Human; settings: Homo sapiens; NCI-H1299, 48 hours; read-out: EC15 (concentration of inhibitor necessary to induce polyploidy in 15% of cells)
Summary of the method: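 Potency is given as EC15, the inhibitor concentration giving 15% polyploid cells, from log dose-response least-squares analysis. Polyploid cells (nuclear area >750 μ^2, ≥4N) were counted by Hoechst high-content microscopy. H1299 cells had been exposed for 48 h at 37 C in duplicate, then fixed in 3% formalin.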

KDR = KDR (Homo sapiens, UniProt P35968); assay: KDR HTRF in vitro kinase assay; assay type: biochemical; design: purified enzyme (His6-KDR 789-1354, MW 63 kD); His6 (N); settings: 1 mM ATP; read-out: KDR enzyme inhibition data (Ki)
Summary of the method: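 His6-KDR 789-1354 (7 ng/well) with 0.5 μM biotinylated peptide substrate and 1 mM ATP in HEPES pH 7.1, MgCl2/MnCl2, 60 min at room temperature. EDTA-quenched, detected by streptavidin-XL-665 plus Eu-kryptate anti-phosphotyrosine HTRF after 3 h; IC50 from 620/665 nm ratio.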

Aurora B = biological target: T1, Aurora B (Homo sapiens, UniProt Q96GD4); assay: Aurora B enzyme inhibition (time-resolved fluorescence, histone H3 peptide); assay type: biochemical; settings: 1 mM ATP
T1 construct: Active Aurora B enzyme (recombinant residues 1-344)
Summary of the method: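 IC50s came from an exponential fit of inhibition against inhibitor concentration, with phosphorylation read as the 665/615 nm time-resolved fluorescence ratio after EDTA stop using Eu-anti-phospho-H3 and SA-APC. The 1 h reaction used Aurora B 1-344 plus GST-INCENP, biotin-histone H3 1-21 peptide and 1 mM ATP in pH 7.4 HEPES buffer.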

Aurora A = biological target: T2, Aurora A (Homo sapiens, UniProt O14965); assay: Aurora A enzyme inhibition (time-resolved fluorescence, STK substrate-2); assay type: biochemical; settings: 1 mM ATP
T2 sequence (O14965 1-403): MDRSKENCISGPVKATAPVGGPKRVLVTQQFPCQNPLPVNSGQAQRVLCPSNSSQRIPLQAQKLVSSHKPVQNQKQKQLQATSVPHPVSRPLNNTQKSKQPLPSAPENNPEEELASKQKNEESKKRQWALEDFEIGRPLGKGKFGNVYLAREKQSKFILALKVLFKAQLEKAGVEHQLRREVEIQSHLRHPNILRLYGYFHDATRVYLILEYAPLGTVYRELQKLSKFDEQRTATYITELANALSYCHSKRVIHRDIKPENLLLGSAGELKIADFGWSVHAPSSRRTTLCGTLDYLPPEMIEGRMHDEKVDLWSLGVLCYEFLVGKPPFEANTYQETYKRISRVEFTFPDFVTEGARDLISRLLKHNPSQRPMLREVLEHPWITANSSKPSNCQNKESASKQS
Summary of the method: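 Phosphorylation of biotinylated STK substrate-2 at 1 mM ATP, 1 h, Hepes buffer pH 7.4 (MgCl2, sodium orthovanadate, Triton X-100). After EDTA quench, 665/615 nm time-resolved fluorescence ratio read via europium anti-phospho antibody and SA-XL665; IC50 from exponential fit versus inhibitor concentration.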

KDR, sequence (P35968 789-1354): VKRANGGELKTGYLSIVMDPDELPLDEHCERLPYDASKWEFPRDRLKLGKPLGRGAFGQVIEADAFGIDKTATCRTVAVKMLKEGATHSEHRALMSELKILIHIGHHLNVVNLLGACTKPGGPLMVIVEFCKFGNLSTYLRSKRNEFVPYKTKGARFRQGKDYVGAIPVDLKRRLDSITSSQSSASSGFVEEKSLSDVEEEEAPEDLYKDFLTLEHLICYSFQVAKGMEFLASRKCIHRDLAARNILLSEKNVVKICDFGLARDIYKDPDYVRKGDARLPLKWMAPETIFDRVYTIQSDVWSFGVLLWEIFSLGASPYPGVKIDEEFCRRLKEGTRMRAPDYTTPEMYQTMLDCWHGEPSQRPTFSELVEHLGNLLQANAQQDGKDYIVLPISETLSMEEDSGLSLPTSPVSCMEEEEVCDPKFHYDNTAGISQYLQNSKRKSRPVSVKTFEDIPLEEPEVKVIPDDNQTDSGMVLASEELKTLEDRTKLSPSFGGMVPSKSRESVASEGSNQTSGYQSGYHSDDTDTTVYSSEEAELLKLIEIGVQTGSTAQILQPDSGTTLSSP
T1 sequence (Q96GD4 whole entry, the tested form may be a part): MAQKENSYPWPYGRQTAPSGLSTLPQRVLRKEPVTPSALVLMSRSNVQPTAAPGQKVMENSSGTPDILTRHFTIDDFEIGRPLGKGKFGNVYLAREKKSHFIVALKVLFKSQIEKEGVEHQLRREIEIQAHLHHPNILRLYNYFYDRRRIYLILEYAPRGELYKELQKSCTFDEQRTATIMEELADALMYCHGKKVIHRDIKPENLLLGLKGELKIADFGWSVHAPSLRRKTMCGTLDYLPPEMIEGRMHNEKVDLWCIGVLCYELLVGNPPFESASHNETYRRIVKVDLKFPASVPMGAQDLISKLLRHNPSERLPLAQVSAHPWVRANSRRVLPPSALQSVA
T1 sequence (Q9NQS7 826-918 partner limits assumed): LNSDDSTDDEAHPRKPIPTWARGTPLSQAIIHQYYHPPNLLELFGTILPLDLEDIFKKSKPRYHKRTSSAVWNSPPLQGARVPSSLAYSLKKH

Row | SMILES | EC15 (NCI-H1299 cells) | Ki (KDR) | Ki (Aurora B) | Ki (Aurora A)
1 | NC(=O)[C@@H]1[C@H](Nc2nc(Nc3cnn([C@H]4CCOC4)c3)ncc2Br)[C@H]2C=C[C@@H]1C2 [Example 117, (1S,2S,3R,4R)-3-{[5-bromo-2-({1-[(3S)-tetrahydrofuran-3-yl]-1H-pyrazol-4-yl}amino)pyrimidin-4-yl]amino}bicyclo[2.2.1]hept-5-ene-2-carboxamide] | < 100 nM | < 100 nM | < 100 nM | < 100 nM
2 | NC(=O)[C@@H]1[C@H](Nc2nc(Nc3cnn(C4CCC4)c3)ncc2Cl)[C@H]2C=C[C@@H]1C2 [Example 118, (1S,2S,3R,4R)-3-({5-chloro-2-[(1-cyclobutyl-1H-pyrazol-4-yl)amino]pyrimidin-4-yl}amino)bicyclo[2.2.1]hept-5-ene-2-carboxamide] | < 100 nM | < 100 nM | < 100 nM | < 100 nM
3 | CS(=O)(=O)CCn1cc(Nc2ncc(Cl)c(N[C@H]3[C@@H](C(N)=O)[C@@H]4C=C[C@H]3C4)n2)cn1 [Example 119, (1S,2S,3R,4R)-3-{[5-chloro-2-({1-[2-(methylsulfonyl)ethyl]-1H-pyrazol-4-yl}amino)pyrimidin-4-yl]amino}bicyclo[2.2.1]hept-5-ene-2-carboxamide] | < 100 nM | < 100 nM | < 100 nM | < 100 nM
4 | CS(=O)(=O)CCn1cc(Nc2ncc(Br)c(N[C@H]3[C@@H](C(N)=O)[C@@H]4C=C[C@H]3C4)n2)cn1 [Example 122, (1S,2S,3R,4R)-3-{[5-bromo-2-({1-[2-(methylsulfonyl)ethyl]-1H-pyrazol-4-yl}amino)pyrimidin-4-yl]amino}bicyclo[2.2.1]hept-5-ene-2-carboxamide] | < 100 nM | < 100 nM | < 100 nM | < 100 nM
5 | NC(=O)[C@@H]1[C@H](Nc2nc(Nc3cnn(C4CCC4)c3)ncc2Br)[C@H]2C=C[C@@H]1C2 [Example 123, (1S,2S,3R,4R)-3-({5-bromo-2-[(1-cyclobutyl-1H-pyrazol-4-yl)amino]pyrimidin-4-yl}amino)bicyclo[2.2.1]hept-5-ene-2-carboxamide] | < 100 nM | < 100 nM | < 100 nM | < 100 nM
6 | NC(=O)[C@@H]1[C@H](Nc2nc(Nc3cnn(C[C@H](O)CO)c3)ncc2Cl)[C@H]2C=C[C@@H]1C2 [Example 124, (1S,2S,3R,4R)-3-{[5-chloro-2-({1-[(2S)-2,3-dihydroxypropyl]-1H-pyrazol-4-yl}amino)pyrimidin-4-yl]amino}bicyclo[2.2.1]hept-5-ene-2-carboxamide] | < 100 nM | < 100 nM | < 100 nM | < 100 nM
7 | NC(=O)[C@@H]1[C@H](Nc2nc(Nc3cnn(CC4CCO4)c3)ncc2Cl)[C@H]2C=C[C@@H]1C2 (stereo partly drawn) [Example 129, (1S,2S,3R,4R)-3-[(5-chloro-2-{[1-(oxetan-2-ylmethyl)-1H-pyrazol-4-yl]amino}pyrimidin-4-yl)amino]bicyclo[2.2.1]hept-5-ene-2-carboxamide] | < 100 nM | < 100 nM | < 100 nM | < 100 nM
8 | NC(=O)[C@@H]1[C@H](Nc2nc(Nc3cnn(C[C@@H](O)CO)c3)ncc2Cl)[C@H]2C=C[C@@H]1C2 [Example 130, (1S,2S,3R,4R)-3-{[5-chloro-2-({1-[(2R)-2,3-dihydroxypropyl]-1H-pyrazol-4-yl}amino)pyrimidin-4-yl]amino}bicyclo[2.2.1]hept-5-ene-2-carboxamide] | < 100 nM | < 100 nM | < 100 nM | < 100 nM
9 | NC(=O)[C@@H]1[C@H](Nc2nc(Nc3cnn(C[C@H](O)CO)c3)ncc2Br)[C@H]2C=C[C@@H]1C2 [Example 131, (1S,2S,3R,4R)-3-{[5-bromo-2-({1-[(2S)-2,3-dihydroxypropyl]-1H-pyrazol-4-yl}amino)pyrimidin-4-yl]amino}bicyclo[2.2.1]hept-5-ene-2-carboxamide] | < 100 nM | < 100 nM | < 100 nM | < 100 nM
10 | Cn1cc(Nc2ncc(Br)c(Nc3ccccc3C3(O)CCC3)n2)cn1 [Example 132, 1-[2-({5-bromo-2-[(1-methyl-1H-pyrazol-4-yl)amino]pyrimidin-4-yl}amino)phenyl]cyclobutanol] | 100 to 1000 nM | < 100 nM | < 100 nM | < 100 nM
11 | Cc1nn(C)cc1Nc1ncc(Cl)c(N[C@H]2[C@@H](C(N)=O)[C@@H]3C=C[C@H]2C3)n1 [Example 134, (1S,2S,3R,4R)-3-({5-chloro-2-[(1,3-dimethyl-1H-pyrazol-4-yl)amino]pyrimidin-4-yl}amino)bicyclo[2.2.1]hept-5-ene-2-carboxamide] | < 100 nM | < 100 nM | < 100 nM | < 100 nM
12 | Cc1nn(C)cc1Nc1ncc(Br)c(N[C@H]2[C@@H](C(N)=O)[C@@H]3C=C[C@H]2C3)n1 [Example 135, (1S,2S,3R,4R)-3-({5-bromo-2-[(1,3-dimethyl-1H-pyrazol-4-yl)amino]pyrimidin-4-yl}amino)bicyclo[2.2.1]hept-5-ene-2-carboxamide] | < 100 nM | < 100 nM | < 100 nM | < 100 nM
13 | Cn1cc(Nc2ncc([N+](=O)[O-])c(N[C@H]3[C@@H](C(N)=O)[C@@H]4C=C[C@H]3C4)n2)cn1 [Example 139, (1S,2S,3R,4R)-3-({2-[(1-methyl-1H-pyrazol-4-yl)amino]-5-nitropyrimidin-4-yl}amino)bicyclo[2.2.1]hept-5-ene-2-carboxamide] | < 100 nM | < 100 nM | < 100 nM | < 100 nM
14 | CCn1cc(Nc2ncc([N+](=O)[O-])c(N[C@H]3[C@@H](C(N)=O)[C@@H]4C=C[C@H]3C4)n2)cn1 [Example 140, (1S,2S,3R,4R)-3-({2-[(1-ethyl-1H-pyrazol-4-yl)amino]-5-nitropyrimidin-4-yl}amino)bicyclo[2.2.1]hept-5-ene-2-carboxamide] | < 100 nM | < 100 nM | < 100 nM | < 100 nM
15 | NC(=O)[C@@H]1[C@H](Nc2nc(Nc3cnn(CCc4ccccc4)c3)ncc2Cl)[C@H]2C=C[C@@H]1C2 [Example 143, (1S,2S,3R,4R)-3-[(5-chloro-2-{[1-(2-phenylethyl)-1H-pyrazol-4-yl]amino}pyrimidin-4-yl)amino]bicyclo[2.2.1]hept-5-ene-2-carboxamide] | < 100 nM | < 100 nM | < 100 nM | < 100 nM
16 | NC(=O)[C@@H]1[C@H](Nc2nc(Nc3cnn(Cc4ccccc4)c3)ncc2Cl)[C@H]2C=C[C@@H]1C2 [Example 144, (1S,2S,3R,4R)-3-({2-[(1-benzyl-1H-pyrazol-4-yl)amino]-5-chloropyrimidin-4-yl}amino)bicyclo[2.2.1]hept-5-ene-2-carboxamide] | < 100 nM | < 100 nM | < 100 nM | < 100 nM
17 | NC(=O)[C@@H]1[C@H](Nc2nc(Nc3cnn(CCc4ccccc4)c3)ncc2Br)[C@H]2C=C[C@@H]1C2 [Example 148, (1S,2S,3R,4R)-3-[(5-bromo-2-{[1-(2-phenylethyl)-1H-pyrazol-4-yl]amino}pyrimidin-4-yl)amino]bicyclo[2.2.1]hept-5-ene-2-carboxamide] | < 100 nM | < 100 nM | < 100 nM | < 100 nM
18 | NC(=O)[C@@H]1[C@H](Nc2nc(Nc3cnn(Cc4ccccc4)c3)ncc2Br)[C@H]2C=C[C@@H]1C2 [Example 149, (1S,2S,3R,4R)-3-({2-[(1-benzyl-1H-pyrazol-4-yl)amino]-5-bromopyrimidin-4-yl}amino)bicyclo[2.2.1]hept-5-ene-2-carboxamide] | < 100 nM | < 100 nM | < 100 nM | < 100 nM
19 | Cn1cc(Nc2ncc(C(F)(F)F)c(Nc3ccsc3C(N)=O)n2)cn1 [Example 150, 3-({2-[(1-methyl-1H-pyrazol-4-yl)amino]-5-(trifluoromethyl)pyrimidin-4-yl}amino)thiophene-2-carboxamide] | < 100 nM | < 100 nM | < 100 nM | < 100 nM
